Patent US12568969B2, “Pyridine compounds for controlling invertebrate pests” (FMC Corporation, priority 2020, dated 2026)

Columns and labels:
[1] = tested on: corn planthopper (Peregrinus maidis (Ashmead)); experiment: whole plant or invertebrate; assay type: in vivo; conditions: for Control Efficacy CPH: corn planthopper
Method in brief: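 Corn plants 3-4 days old were sprayed at 250, 50 and/or 10 ppm in 10% acetone with 300 ppm non-ionic surfactant, three replicates, contact and/or systemic exposure. After 1 h drying, ~15-20 nymphs (18-to-21-day-old) were added; mortality assessed visually after 6 days at 22-24° C, 50-70% RH.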

[2] = tested on: potato leafhopper (Empoasca fabae (Harris)); experiment: Test C: control of potato leafhopper on Soleil bean plant, spray; assay type: in vivo; conditions: for mortality at 250 ppm: Empoasca fabae, 144 h, 6 days; for Control Efficacy PLH: potato leafhopper
Description: (§1) Test compounds were formulated using a solution containing 10% acetone, […] and 300 ppm Activator 909 non-ionic surfactant (Loveland Products, Loveland, Colorado, USA). The formulated compounds were applied in 1 mL of liquid through an atomizer nozzle positioned 1.27 cm (0.5 inches) above the top of each test unit. Test compounds were sprayed at the rates indicated, and each test was replicated three times.
For evaluating control of potato leafhopper (Empoasca fabae (Harris)) through contact and/or systemic means, the test unit consisted of a small open container with a 5-6-day-old Soleil bean plant (primary leaves emerged) inside. White sand was added to the top of the soil, and one of the primary leaves was excised prior to application of the test compound.
[…] After spraying of the formulated test compound, the test units were allowed to dry for 1 hour before they were post-infested with 5 potato leafhoppers (18-to-21-day-old adults). A black, screened cap was placed on the top of the test unit, and the test units were held for 6 days in a growth chamber at 20° C. and 70% relative humidity. Each test unit was then visually assessed for insect mortality.

[3] = tested on: green peach aphid (Myzus persicae (Sulzer)); experiment: Test D: control of green peach aphid on radish plant, spray; assay type: in vivo; conditions: for mortality at 50 ppm / mortality at 250 ppm: Myzus persicae, 144 h, 6 days; for Control Efficacy GPA: green peach aphid
Method in brief: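 Radish plants (12-15 days old) pre-infested with 30-40 aphids, sprayed with compound in 10% acetone/water with 300 ppm non-ionic surfactant at 250 and/or 50 ppm, three replicates. Held 6 days at 19-21 °C, 50-70% relative humidity, then mortality scored visually.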

[4] = tested on: cotton melon aphid (Aphis gossypii (Glover)); experiment: whole plant or invertebrate; assay type: in vivo; conditions: for mortality at 50 ppm / mortality at 250 ppm: Aphis gossypii, 144 h, 6 days; for Control Efficacy CMA: cotton melon aphid
Method in brief: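 Compounds were formulated in a solution of 10% acetone, […] and 300 ppm Activator 909 non-ionic surfactant and sprayed as 1 mL through an atomizer nozzle 1.27 cm (0.5 inches) above each test unit, with three replicates. Units were pre-infested with 30-40 aphids on leaf pieces via the cut-leaf method, soil covered with sand, then kept 6 days at 19° C. and 70% relative humidity before visual mortality scoring.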

[5] = Vapor pressure estimated by GC/MS retention time correlation; assay type: physicochemical
Description: The procedures to obtain the vapor pressure values for both compounds are as follows: A solution of the test compound was prepared in acetonitrile at a concentration of 50 μg/mL and was then analyzed by gas chromatography/mass spectrometry (GC/MS). A linear correlation of retention times vs. known vapor pressure values of standard compounds is used to obtain an estimate of the vapor pressure of the test compounds by using interpolation. Detection and retention time of the subject compounds are confirmed by interpretation of the mass spectrum.

[6] = tested on: diamondback moth (Plutella xylostella (L.)); experiment: Test A: control of diamondback moth on mustard plant, spray; assay type: in vivo; conditions: sprayed at 250 ppm; assessed after 6 days
Description: as §1
For evaluating control of diamondback moth (Plutella xylostella (L.)) the test unit consisted of a small open container with a 12-14-day-old mustard plant inside. This was pre-infested with ˜50 neonate larvae that were dispensed into the test unit via corn cob grits using an inoculator. The larvae moved onto the test plant after being dispensed into the test unit.
Test compounds were formulated and sprayed at 250 ppm. After spraying of the formulated test compound, each test unit was allowed to dry for 1 hour and then a black, screened cap was placed on top. The test units were held for 6 days in a growth chamber at 25° C. and 70% relative humidity. Plant feeding damage was then visually assessed based on foliage consumed, and larvae were assessed for mortality.

[7] = tested on: Western Flower Thrips (Frankliniellla occidentalis (Pergande)); experiment: Test G: control of Western Flower Thrips on Soleil bean plant, spray; assay type: in vivo; conditions: sprayed at 250 ppm; 6 days
Description: as §1
For evaluating control of the Western Flower Thrips (Frankliniellla occidentalis (Pergande)) through contact and/or systemic means, the test unit consisted of a small open container with a 5-7-day-old Soleil bean plant inside.
Test compounds were formulated and sprayed at 250 ppm. After spraying, the test units were allowed to dry for 1 hour, and then about 60 thrips (adults and nymphs) were added to each unit. A black, screened cap was placed on top, and the test units were held for 6 days at 25° C. and 45-55% relative humidity. Each test unit was then visually assessed for plant damage and insect mortality.

[8] = tested on: sweetpotato whitefly (Bemisia tabaci (Gennadius)); experiment: Test F: control of sweetpotato whitefly on cotton plant, spray; assay type: in vivo; conditions: 312 h, 13 days; for mortality at 250 ppm: sprayed at 250 ppm
Method in brief: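 Cotton plants 12–14 days old, trimmed to one true leaf and carrying at least 15 whitefly eggs, were sprayed at 250 and/or 50 ppm in acetone/water with non-ionic surfactant, three replicates. After 13 days at 28° C and 50-70% relative humidity, insect mortality was scored visually.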

[9] = Peregrinus maidis, 144 h, sprayed at 50 ppm, 6 days
[10] = Peregrinus maidis, 144 h, sprayed at 250 ppm, 6 days

In the case of `Fc1cncc(-n2nccn2)c1C(F)c1ccc(OC(F)(F)F)cc1` (stereo not drawn) [Compound 8], the “control efficacy compared with compound A” value ([1]; CPH, down to 2 ppm) is reported as “significantly higher control efficacy than compound A”, the mortality at 50 ppm [1, 9] is reported as no less than 80% and the mortality at 250 ppm [1, 10] is reported as no less than 80%. The Control Efficacy CPH ([1]; sprayed at 2 ppm) was 89%, the Control Efficacy CPH ([1]; sprayed at 10 ppm) was 95% and the Control Efficacy CPH ([1]; sprayed at 50 ppm) was 100%. For the same compound, the Control Efficacy CPH ([1]; sprayed at 250 ppm) was 100%, the mortality at 250 ppm ([2]; sprayed at 250 ppm) was no less than 80% and the “control efficacy compared with compound A” value ([2]; PLH, at 250 ppm) was “significantly higher control efficacy than compound A”. For the same compound, the “Control Efficacy PLH” value ([2]; sprayed at 50 ppm) was 0, the “Control Efficacy PLH” value ([2]; sprayed at 250 ppm) was 93 and the “control efficacy compared with compound A” value ([3]; GPA, down to 2 ppm) was “significantly higher control efficacy than compound A”. The mortality at 50 ppm ([3]; sprayed at 50 ppm) was no less than 80%, the mortality at 250 ppm ([3]; sprayed at 250 ppm) was no less than 80% and the Control Efficacy GPA ([3]; sprayed at 2 ppm) was 100%. It also gave a Control Efficacy GPA ([3]; sprayed at 10 ppm) of 94%, a Control Efficacy GPA ([3]; sprayed at 50 ppm) of 100% and a Control Efficacy GPA ([3]; sprayed at 250 ppm) of 100%. The mortality at 50 ppm ([4]; sprayed at 50 ppm) was no less than 80%, the mortality at 250 ppm ([4]; sprayed at 250 ppm) was no less than 80% and the “control efficacy compared with compound A” value ([4]; CMA, down to 2 ppm) was “significantly higher control efficacy than compound A”. The Control Efficacy CMA ([4]; sprayed at 2 ppm) was 79%, the Control Efficacy CMA ([4]; sprayed at 10 ppm) was 88% and the Control Efficacy CMA ([4]; sprayed at 50 ppm) was 96%. For the same compound, the Control Efficacy CMA ([4]; sprayed at 250 ppm) was 80%, the “Vapor Pressure” value [5] was 6.04E−06 and the “vapor pressure relative to compound A” value ([5]; compared with compound A) was roughly 1000 times lower.

With `FC(c1ccc(OC(F)(F)F)cc1)c1ccncc1-n1cccn1` (stereo not drawn) [Compound 11] the mortality at 50 ppm [1, 9] was no less than 80%, the mortality at 250 ppm [1, 10] was no less than 80% and the mortality at 250 ppm ([2]; sprayed at 250 ppm) was no less than 80%. It also gave a mortality at 250 ppm ([3]; sprayed at 250 ppm) of no less than 80%, a mortality at 50 ppm ([4]; sprayed at 50 ppm) of no less than 80% and a mortality at 250 ppm ([4]; sprayed at 250 ppm) of no less than 80%.

For `Fc1cncc(-c2nccs2)c1C(F)c1ccc(OC(F)(F)F)cc1` (stereo not drawn) [Compound 33], the “control efficacy (40% or less feeding damage and/or 100% mortality)” value [6] was “very good to excellent levels of control efficacy”, the mortality at 10 ppm ([1]; Peregrinus maidis, 144 h, sprayed at 10 ppm, 6 days) was no less than 80% and the mortality at 50 ppm [1, 9] was no less than 80%. It also gave a mortality at 250 ppm [1, 10] of no less than 80%, a mortality at 250 ppm ([2]; sprayed at 250 ppm) of no less than 80% and a mortality at 50 ppm ([4]; sprayed at 50 ppm) of no less than 80%. The mortality at 250 ppm ([4]; sprayed at 250 ppm) was no less than 80% and the “control efficacy (30% or less plant damage and/or 100% mortality)” value [7] was “very good to excellent levels of control efficacy”.

Compound `COC(c1ccc(OC(F)(F)F)cc1)c1c(F)cncc1-n1cccn1` (stereo not drawn) [Compound 37] has a mortality at 50 ppm [1, 9] of no less than 80%, a mortality at 250 ppm [1, 10] of no less than 80% and a mortality at 250 ppm ([2]; sprayed at 250 ppm) of no less than 80%. It also gave a mortality at 250 ppm ([3]; sprayed at 250 ppm) of no less than 80%, a mortality at 50 ppm ([4]; sprayed at 50 ppm) of no less than 80% and a mortality at 250 ppm ([4]; sprayed at 250 ppm) of no less than 80%. The mortality at 250 ppm [8] was no less than 70%.

`FC(c1ccc(OC(F)(F)F)cc1)c1c(Cl)cncc1-n1nccn1` (stereo not drawn) [Compound 14] showed a mortality at 50 ppm [1, 9] of no less than 80%, a mortality at 250 ppm [1, 10] of no less than 80% and a mortality at 250 ppm ([2]; sprayed at 250 ppm) of no less than 80%. It also gave a mortality at 50 ppm ([3]; sprayed at 50 ppm) of no less than 80%, a mortality at 250 ppm ([3]; sprayed at 250 ppm) of no less than 80% and a mortality at 50 ppm ([4]; sprayed at 50 ppm) of no less than 80%. It also gave a mortality at 250 ppm ([4]; sprayed at 250 ppm) of no less than 80%, a mortality at 50 ppm ([8]; sprayed at 50 ppm) of no less than 70% and a mortality at 250 ppm [8] of no less than 70%.

In the case of `Fc1cncc(-c2nccs2)c1C(F)c1ccc(OC(F)(F)F)cc1` (stereo not drawn) [Compound 36], the “control efficacy (40% or less feeding damage and/or 100% mortality)” value [6] is reported as “very good to excellent levels of control efficacy”, the mortality at 250 ppm ([3]; sprayed at 250 ppm) is reported as no less than 80% and the mortality at 250 ppm [8] is reported as no less than 70%. For the same compound, the “control efficacy (30% or less plant damage and/or 100% mortality)” value [7] was “very good to excellent levels of control efficacy”.

With `FC(c1ccc(OC(F)(F)F)cc1)c1ccncc1-n1nccn1` (stereo not drawn) [Compound 9] the mortality at 50 ppm [1, 9] was no less than 80%, the mortality at 250 ppm [1, 10] was no less than 80% and the mortality at 250 ppm ([2]; sprayed at 250 ppm) was no less than 80%. It also gave a mortality at 50 ppm ([4]; sprayed at 50 ppm) of no less than 80% and a mortality at 250 ppm ([4]; sprayed at 250 ppm) of no less than 80%.
